In patent US6433151B1, “Erythromycin derivatives, a process for their preparation and their use as medicaments” (Aventis Pharma S.A., priority 1998, dated 2002):

Columns and labels:
Assay in all cases: Method of dilutions in a liquid medium (MIC)
Type in all cases: cell-based
S. pneumoniae 030PW23c = conditions: ery R, reading after 24 hours
Description: (§1) Method of Dilutions in a Liquid Medium
(§2) A series of tubes in which the same amount of sterile nutrient medium is distributed is prepared. Increasing amounts of the product to be studied are distributed in each tube, and each tube is then seeded with a strain of bacteria.
(§3) After incubation for twenty-four hours in an oven at 37° C., the inhibition of growth is evaluated by transillumination, from which the minimum inhibitory concentrations (MIC), expressed in micrograms/cm^3, can be determined.
(§4) The following results were obtained with the product from example 1 and from example 2 (reading taken after 24 hours).

S. aureus 011UC4 = conditions: reading after 24 hours
Description: as §1, §2, §3, §4

S. pneumoniae 030GR20 = conditions: S. pneumoniae 030GR20, ery S; reading after 24 hours
Description: as §1, §2, §3, §4

S. mitis 02MitCB1 = conditions: S. mitis 02MitCB1, Ery S; reading after 24 hours
Description: as §1, §2, §3, §4

E. faecium 02D3HT1 = conditions: E. faecium 02D3HT1, Ery S; reading after 24 hours
Description: as §1, §2, §3, §4

S. aureus 011GO25I = conditions: oxa S ery R, reading after 24 hours
Description: as §1, §2, §3, §4

S. pyogenes 02A1UC1 = conditions: S. pyogenes 02A1UC1, ery S; reading after 24 hours
Description: as §1, §2, §3, §4

S. pneumoniae 030SJ51 = conditions: S. pneumoniae 030SJ51, ery R; reading after 24 hours
Description: as §1, §2, §3, §4

S. pneumoniae 030R01I = conditions: ery R, reading after 24 hours
Description: as §1, §2, §3, §4

S. epidermidis 012GO11I = conditions: oxa S ery R, reading after 24 hours
Description: as §1, §2, §3, §4

S. pneumoniae 030CR18c = conditions: ery R, reading after 24 hours
Description: as §1, §2, §3, §4

S. agalactiae 02B1SJ1c = conditions: ery R, reading after 24 hours
Description: as §1, §2, §3, §4

S. pneumoniae 030SJ1c = conditions: ery R, reading after 24 hours
Description: as §1, §2, §3, §4

S. agalactiae 02B1HT1 = conditions: S. agalactiae 02B1HT1, ery S; reading after 24 hours
Description: as §1, §2, §3, §4

[1] = tested on: Streptococcus gr. G 02GOGR5; conditions: Streptococcus gr. G 02GOGR5, Ery S; reading after 24 hours
Description: as §1, §2, §3, §4

S. sanguis 02SgGr10I = conditions: ery R, reading after 24 hours
Description: as §1, §2, §3, §4

S. pneumoniae 032UC1 = conditions: S. pneumoniae 032UC1, ery S; reading after 24 hours
Description: as §1, §2, §3, §4

E. faecalis 02D2DU15c = conditions: ery R, reading after 24 hours
Description: as §1, §2, §3, §4

S. mitis 02MitGR16I = conditions: ery R, reading after 24 hours
Description: as §1, §2, §3, §4

E. faecalis 02D2UC1 = conditions: E. faecalis 02D2UC1, ery S; reading after 24 hours
Description: as §1, §2, §3, §4

[2] = S. aureus 011UC4 + serum 50%, ery S

minimum inhibitory concentrations (MIC) (S. pneumoniae 030PW23c) | minimum inhibitory concentrations (MIC) (S. aureus 011UC4; [2]) | minimum inhibitory concentrations (MIC) (S. aureus 011UC4; S. aureus 011UC4, ery S) | minimum inhibitory concentrations (MIC) (S. pneumoniae 030GR20) | minimum inhibitory concentrations (MIC) (S. mitis 02MitCB1) | minimum inhibitory concentrations (MIC) (E. faecium 02D3HT1) | minimum inhibitory concentrations (MIC) (S. aureus 011GO25I) | minimum inhibitory concentrations (MIC) (S. pyogenes 02A1UC1) | minimum inhibitory concentrations (MIC) (S. pneumoniae 030SJ51) | minimum inhibitory concentrations (MIC) (S. pneumoniae 030R01I) | minimum inhibitory concentrations (MIC) (S. epidermidis 012GO11I) | minimum inhibitory concentrations (MIC) (S. pneumoniae 030CR18c) | minimum inhibitory concentrations (MIC) (S. agalactiae 02B1SJ1c) | minimum inhibitory concentrations (MIC) (S. pneumoniae 030SJ1c) | minimum inhibitory concentrations (MIC) (S. agalactiae 02B1HT1) | minimum inhibitory concentrations (MIC) [1] | minimum inhibitory concentrations (MIC) (S. sanguis 02SgGr10I) | minimum inhibitory concentrations (MIC) (S. pneumoniae 032UC1) | minimum inhibitory concentrations (MIC) (E. faecalis 02D2DU15c) | minimum inhibitory concentrations (MIC) (S. mitis 02MitGR16I) | Compound | also measured
0.150 micrograms/cm^3 | 0.040 micrograms/cm^3 | 0.300 micrograms/cm^3 | <=0.02 micrograms/cm^3 | 0.080 micrograms/cm^3 | 0.080 micrograms/cm^3 | 5.000 micrograms/cm^3 | 0.800 micrograms/cm^3 | 0.080 micrograms/cm^3 | 0.150 micrograms/cm^3 | 0.150 micrograms/cm^3 | 10.000 micrograms/cm^3 | 0.600 micrograms/cm^3 | 0.080 micrograms/cm^3 | <=0.02 micrograms/cm^3 | 0.080 micrograms/cm^3 | 0.150 micrograms/cm^3 | <=0.02 micrograms/cm^3 | >40 micrograms/cm^3 | 0.080 micrograms/cm^3 | CCC1OC(=O)C(C)C(=O)C(C)C(OC2OC(C)CC(NC)C2O)C(C)(OC)CC(C)C(=O)C(C)C2N(CCCCn3cnc(-c4cccnc4)c3)C(=O)OC12C [Ex. 1, N-Demethyl-11,12-dideoxy-3-de[(2,6-dideoxy-3-C-methyl-3-O-methyl-alpha-L-ribohexopyranosyl)-oxy]-6-O-methyl-3-oxo-12,11-[oxycarbonyl[[4-[4-(3-pyridinyl)-1H-imidazol-1-yl]butyl]imino]]-erythromycin] | minimum inhibitory concentrations (MIC) (E. faecalis 02D2UC1): 0.080 micrograms/cm^3
0.080 micrograms/cm^3 | 0.150 micrograms/cm^3 | 0.080 micrograms/cm^3 | <=0.01 micrograms/cm^3 | <=0.01 micrograms/cm^3 | 0.040 micrograms/cm^3 | 0.600 micrograms/cm^3 | 0.040 micrograms/cm^3 | 0.080 micrograms/cm^3 | 0.300 micrograms/cm^3 | 0.300 micrograms/cm^3 | 2.500 micrograms/cm^3 | 0.150 micrograms/cm^3 | 0.150 micrograms/cm^3 | 0.020 micrograms/cm^3 | 0.040 micrograms/cm^3 | 0.150 micrograms/cm^3 | <=0.01 micrograms/cm^3 | >20 micrograms/cm^3 | 0.080 micrograms/cm^3 | CCC1OC(=O)C(C)C(=O)C(C)C(OC2OC(C)CC(NC)C2O)C(C)(OC)CC(C)C(=O)C(C)C2N(NCCCc3ccnc4ccccc34)C(=O)OC12C [Ex. 2, N-Demethyl-11,12-dideoxy-3-de((2,6-dideoxy-3-C-methyl-3-O-methyl-alpha-L-ribohexopyranosyl)oxy)-6-O-methyl-3-oxo-12,11-(oxycarbonyl(2-(3-(4-quinolinyl)-propyl)-hydrazono))-erythromycin] | minimum inhibitory concentrations (MIC) (E. faecalis 02D2UC1): 0.040 micrograms/cm^3
